# Experimental data from PMC11270730, “Isolation and In Vitro Biological Evaluation of Triterpenes from Salacia grandifolia Leaves” (ACS Omega, 2024).
# Experiments:
# THP-1 cells = experiment: Cytotoxic MTT assay, THP-1; format: cell-based; conditions: Homo sapiens; THP-1, MTT, 48 h, mean ± SD of two independent experiments
# Protocol: (§1) The cytotoxicity of compounds was evaluated against the K-562 (chronic myeloid leukemia, ATCC CCL-243) and THP-1 (acute monocytic leukemia, ATCC TIB-202) cell lines. […] For the cytotoxicity assessment, cells were planted in 96-well microplates (1 × 10^4 cells per well) containing RPMI 1640 medium (Roswell Park Memorial Institute, Cultilab, Campinas, SP, Brazil) supplemented with 10% FBS (Cultilab, Campinas, SP, Brazil), 100 U/mL penicillin, 100 μg/mL streptomycin, and 10 mM HEPES, pH 7.4. The cells were incubated in a humidified incubator at 37 °C with 5% CO2 until the assay was performed. […] After 48 h of incubation, 100 μL of MTT salt at a concentration of 0.5 mg/mL was added to each well. The plate was then incubated for 3 h. After the incubation period, the supernatant was removed, and 50 μL of DMSO was added to each well to solubilize the formazan crystals. The absorbance per well was measured at a wavelength of 550 nm using a microplate reader (Versamax, Molecular Devices, USA). The minimum concentration that inhibited 50% of cell viability (IC50) in the presence of the tested compounds was determined by comparing it with cells cultured without the compounds (considered 100% viable).
# K-562 cells = experiment: Cytotoxic MTT assay, K-562; format: cell-based; conditions: Homo sapiens, K562; K-562, MTT, 48 h, mean ± SD of two independent experiments
# Protocol: as §1
# [1] = L929 cell viability, MTT assay (CC50); conditions: mouse
# Protocol: (§2) The antiviral activity of isolated compounds and extracts was evaluated against the murine coronavirus MHV-3. Initially, the viability of L929 (mouse adipose fibroblasts; ATCC CCL-1) cells was assessed using the MTT (3-(4,5-dimethylthiazol-2-yl)-2,5-diphenyltetrazolium bromide (Thermo Fisher Scientific, USA) assay.[11] Cells were cultured at 37 °C and 5% CO2 in Dulbecco’s modified Eagle medium (DMEM; Cultilab, Brazil) supplemented with 5% fetal bovine serum (FBS; Cultilab, Brazil), 100 IU/mL of penicillin (Cellofarm, Brazil), 100 μg/mL of streptomycin (Merck, Germany) and 0.25 μg/mL of amphotericin B (Cultilab, Brazil). Cells were seeded in 96-well microplates (4 × 10^4 cells per well) and added 200 μL of DMEM with 1% de FBS containing the diluted compounds and extracts to be tested (100 to 1.56 μM or 200 to 3.125 μg/mL). Serial dilutions of DMSO were used as a vehicle control. Additionally, a 10% v/v inhibition control of DMSO was used. After 72 h of incubation under the same conditions, media was removed and 100 μL of MTT diluted in DMEM (0.5 mg/mL) were added to each well and incubated for 3 h. Last, media was removed, and 100 μL of DMSO were added to each well to solubilize the formazan crystals. The absorbance was read at 570 nm using a spectrophotometer (Versamax, Molecular Devices, EUA). The percentages of cell viability inhibition were calculated as the ratio between the absorbance of cells treated with the compounds relative to the vehicle control. Linear regression was used to calculate CC50 values, considering only those data for which r^2 > 0.9. The 50% cytotoxic concentration (CC50) is defined as the highest concentration of a specific compound that reduces cell viability by 50%. All conditions were tested in two independent assays in triplicate.
# MHV-3 = experiment: Antiviral MTT assay against MHV-3 in L929 cells (EC50); format: cell-based, mouse hepatitis virus 3 (murine coronavirus); conditions: for EC50: Murine coronavirus, MHV-3 in L929 cells, MOI 0.1, MTT, NA: not active
# Protocol: as §2
# Here, the same conditions as that used for CC50 were used, with the only difference being the concentrations of the samples (up to 8-fold dilution from the CC50 values for the compounds) diluted in 100 μL and added to 100 μL of viral suspension at a multiplicity of infection (MOI) of 0.1, that is, one viral particle per 10 cells in culture. Ribavirin was used as the positive control. The EC50 value was calculated as the percentage ratio between the absorbance of infected cells treated with the compounds and cells treated only with the vehicle. Last, the selectivity index (SI) was calculated using the ratio between CC50 and EC50. All conditions were tested in two independent assays in triplicate.
compound,measurement,setting,value
"C[C@H]1C(=O)CC[C@@H]2[C@]1(C)CC[C@H]1[C@@]2(C)CC[C@@]2(C)[C@@H]3CC(C)(C)CC[C@]3(C)CC(=O)[C@]12C [Compound 4, friedelane-3,15-dione]",IC50,THP-1 cells,350 ± 43 µM
same,IC50,K-562 cells,593 ± 44 µM
same,CC50 at 72 h,[1],> 100 µM
same,antiviral activity,"MHV-3; MHV-3, up to 100 μM",no antiviral activity
"C[C@H]1C(=O)CC[C@@H]2[C@]1(C)CC[C@H]1[C@@]2(C)CC[C@@]2(C)[C@@H]3C[C@](C)(CO)CC[C@]3(C)CC[C@]12C [Compound 8, 29-hydroxyfriedelan-3-one]",CC50 at 72 h,[1],> 100 µM
"C[C@H]1C(=O)CC[C@@H]2[C@]1(C)CC[C@H]1[C@@]2(C)CC[C@@]2(C)[C@@H]3CC(C)(C)CC[C@]3(CO)CC[C@]12C [Compound 6, 28-hydroxyfriedelan-3-one]",IC50,THP-1 cells,623 ± 12 µM
same,IC50,K-562 cells,318 ± 41 µM
same,CC50 at 72 h,[1],> 100 µM
same,increase in activity compared to triterpene 1,"MHV-3; MHV-3 antiviral activity, 6 versus 1",23 times
same,EC50,MHV-3,2.9 ± 0.3 µM
"C[C@H]1C(=O)CC[C@@H]2[C@]1(C)CC[C@H]1[C@@]2(C)CC[C@@]2(C)[C@@H]3CC(C)(C)CC[C@]3(C)C[C@H](O)[C@]12C [Compound 5, 15α-hydroxyfriedelan-3-one]",CC50 at 72 h,[1],> 100 µM
"C[C@H]1C(=O)CC[C@@H]2[C@]1(C)CC[C@H]1[C@@]2(C)CC[C@@]2(C)[C@@H]3CC(C)(C)CC[C@]3(C)CC[C@]12C [Compound 2, friedelan-3-one]",CC50 at 72 h,[1],> 100 µM
"Nc1ccn([C@@H]2O[C@H](CO)[C@@H](O)[C@@H]2O)c(=O)n1 [cytarabine, reference compound]",IC50,THP-1 cells,41 ± 8 µM
"CC1C(=O)CCC2C1(C)CCC1C2(C)CCC2(C)C3CC(C)(C)CCC3(CO)CC(=O)C12C (centres unmarked) [Compound 1, 28-hydroxyfriedelane-3,15-dione]",IC50,THP-1 cells,539 ± 43 µM
same,IC50,K-562 cells,259 ± 33 µM
same,CC50 at 72 h,[1],> 100 µM
same,EC50,MHV-3,69 ± 6 µM
"NC(=O)c1ncn([C@@H]2O[C@H](CO)[C@@H](O)[C@H]2O)n1 [ribavirin, reference compound]",CC50 at 72 h,[1],> 100 µM
same,EC50,MHV-3,< 10 µM
"C[C@H]1C(=O)CC[C@@H]2[C@]1(C)CC[C@H]1[C@@]2(C)CC[C@@]2(C)[C@@H]3C[C@@](C)(CO)CC[C@]3(C)CC[C@]12C [Compound 7, 30-hydroxyfriedelan-3-one]",IC50,THP-1 cells,385 ± 21 µM
same,IC50,K-562 cells,361 ± 52 µM
same,CC50 at 72 h,[1],> 100 µM
"C[C@H]1[C@@H](O)CC[C@@H]2[C@]1(C)CC[C@H]1[C@@]2(C)CC[C@@]2(C)[C@@H]3CC(C)(C)CC[C@]3(C)CC[C@]12C [Compound 3, friedelan-3β-ol]",CC50 at 72 h,[1],> 100 µM
